# Legend:
# [1] = test system: mouse neonatal primary cardiomyocyte culture; experiment: Oxygen-glucose deprivation/reoxygenation injury in primary cardiomyocytes; type: cell-based; conditions: for amelioration of loss of cell number: Hoechst 33342 staining
# Protocol: In vitro ischemic injury was induced in mouse neonatal primary cardiomyocyte culture by oxygen-glucose deprivation for 18 hours and a 24 hours reoxygenation period in a humidified incubator with 5% CO2/95% air. Cardiomyocytes were incubated with the test compounds during 4 hours prior to the oxygen glucose depriviation (OGD) induction. The test compounds were also present during the OGD insult and during the 24 h-reoxygenation period. After the reoxygenation period, cell number was assessed by Hoechst 33342 staining, apoptosis was measured by determining caspase 3/7 activation, and cell membrane integrity or necrosis was measured as LDH release.
# Data were expressed as mean±SD of three separate wells and individual comparisons were made with Student's t-test (SigmaPlot 9.0 program). The results were normalized to the normoxia-treated cells. Statistical significance (*) p<0.05 as compared to normoxia/DMSO-treated cells and (§) hypoxia/DMSO treated cells. Results
# [2] = biological target: T1, human soluble expoxide hydrolase (sEH) (Homo sapiens, UniProt P34913); experiment: In vitro inhibition of recombinant human soluble epoxide hydrolase; type: biochemical; conditions: 10 μM compound, 50 μM 14,15-EET substrate, vs vehicle control
# T1 construct: purchased Cayman Chemicals
# T1 sequence (P34913 1-555): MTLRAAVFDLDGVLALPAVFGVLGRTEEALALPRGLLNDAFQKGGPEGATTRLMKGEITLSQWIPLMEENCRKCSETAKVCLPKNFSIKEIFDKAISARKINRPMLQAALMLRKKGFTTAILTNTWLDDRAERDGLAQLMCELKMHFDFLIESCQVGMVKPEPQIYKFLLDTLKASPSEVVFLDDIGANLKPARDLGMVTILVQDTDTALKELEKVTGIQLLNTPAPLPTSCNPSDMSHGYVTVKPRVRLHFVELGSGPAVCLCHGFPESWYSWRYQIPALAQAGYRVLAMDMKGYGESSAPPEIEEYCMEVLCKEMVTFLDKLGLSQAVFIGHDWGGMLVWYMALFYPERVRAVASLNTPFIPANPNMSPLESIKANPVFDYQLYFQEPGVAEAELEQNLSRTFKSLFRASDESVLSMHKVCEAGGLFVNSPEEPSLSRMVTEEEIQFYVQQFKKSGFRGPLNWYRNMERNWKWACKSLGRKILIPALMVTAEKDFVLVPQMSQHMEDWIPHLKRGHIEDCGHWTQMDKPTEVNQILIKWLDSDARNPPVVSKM
# Protocol: A selection of compounds was tested for the ability to inhibit human soluble expoxide hydrolase (sEH). […] Briefly, the assay was performed at 37° C. for 20 min in a final volume of 100 μL potassium phosphate buffer (0.1 M, pH 7.2) containing 50 μM 14,15-EET as substrate. The reactions were started by adding enzyme (107.5 ng per reaction, 12.06 U/ml activity, Cayman Chemicals) and terminated with 300 μl ethyl acetate. […] Metabolically robust analogs shown in FIG. 5 were tested at final concentration of 10 μM for potency of sEH-inhibition compared to vehicle control (1% DMSO), n=2-4.
# male B16 mice = experiment: Atrial fibrillation induced by programmed electrical stimulation in a mouse model of moderate cardiac hypertrophy; type: in vivo
# Protocol: Study design: To gain insight into in-vivo effect of synthetic 17,18-EEQ-agonists, atrial fibrillation studies were performed in male B16 mice as described in Westphal, C. et al., PLoS ONE. 2013, 8(8): e73490. Briefly, moderate cardiac hypertrophy was induced by continuous infusion of isoproterenol via subcutaneously implanted osmotic minipumps (Alzet) at a rate of 40 mg/kg/d for two weeks. After two weeks of treatment, ECG and electrophysiological data were recorded. Programmed electrical stimulation (PES) was performed in the right atrium or right ventricle using a digital electrophysiology lab (EP Tracer; CardioTek) to determine refractory periods and arrhythmia inducibility. Atrial arrhythmias were defined as fast (>800 bpm) electrical activity in the right atrial electrograms, with ECG P waves different to normal sinus rhythm and subsequent fast, but physiological activation of the ventricles (ECG R wave and right ventricular electrograms similar to normal sinus rhythm). Atrial fibrillation was defined as fast, irregular activity in the right atrial electrograms with irregular conduction to the ventricles (high variability of R—R intervals). Ventricular arrhythmias were defined by fast (>800 bpm) activity originating from the ventricular myocardium (change in morphology of ECG R waves and local right ventricular electrograms compared to normal sinus rhythm). During inhalation anesthesia with isoflurane (2% with 360 ml/min air flow; Univentor 400 anesthesia unit), the animals' body temperature was kept constant at 37° C. using a homeothermic blanket control unit (Hugo Sachs Elektronik, Harvard Apparatus) with rectal temperature control. After preparation of the right jugular vein, a 2 French octapolar electrophysiology catheter (CIB'ER mouse cath; NuMed) was placed in the right heart, including atrium and ventricle. PES was performed using a standardized protocol that included trains of 10 basal stimuli (S1) followed by up to 3 extra stimuli (S2-S4), delivered with a coupling interval decreasing in steps of 5 ms until ventricular or atrial refractoriness was reached. The stimulation procedures were repeated at three different basal cycle lengths (100 ms, 90 ms, 80 ms) with each animal. Occurrence and duration of inducible arrhythmias were documented. Only stimulation protocols with reproducible arrhythmias longer than five consecutive beats in ventricle and episodes longer than 350 ms in the atria were considered positive. “Arrhythmia inducibility” was calculated as the percentage of effective (positive) out of total protocols applied. Accordingly, the arrhythmia inducibility of individual animals could take a value of 0, 33, 66 or 100%. […]
# [3] = single i.v. injection 2 mg/kg, vs vehicle
compound,measurement,setting,value
"CNC(=O)C(=O)NCCCC/C=C\CCCCCCCOCC(=O)O [Comp-02, 2-((13-(2-(methylamino)-2-oxoacetamido)tridec-8(Z)-en-1-yl)oxy)acetic acid]",reduction of cellular necrosis (LDH-release),[1]; 30 nM,43%
same,amelioration of loss of cell number,[1]; 30 nM,35%
same,reduction of cellular necrosis (LDH-release),[1]; 10 μM,45%
same,amelioration of loss of cell number,[1]; 10 μM,44%
same,"protection against OGD-induced damage, in words","[1]; 18 h OGD, 24 h reoxygenation",partially protected against OGD-induced damage
same,reduction of OGD-induced apoptosis,"[1]; caspase 3/7 activation, concentration not given",43%
same,reduction of OGD-induced necrosis,[1]; concentration not given,29%
same,inhibition of human sEH,[2],did not show sEH-inhibition
same,obvious negative side effects,"male B16 mice; single i.v. bolus injection, 2 mg/kg body weight",did not induce any obvious negative side effects
same,reduction of the inducibility of sustained arrhythmia episodes,male B16 mice; [3],62%
same,severity of induced atrial fibrillation episodes,male B16 mice; [3],significantly reduced
same,sum of totally induced atrial fibrillation episodes (atrial fibrillation burden),male B16 mice; [3],reduced significantly

# — US11096910B2, “Metabolically robust analogs of CYP-eicosanoids for the treatment of cardiac disease” (OMEICOS THERAPEUTICS GMBH, priority 2015, dated 2021)
